Consider ten compounds from PubChem BioAssay (NCI).

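Five concentrations, 48 hours, 96-well plates. GI50 is the concentration that inhibits growth by half. TGI marks complete inhibition of growth.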 Where only a bound is given, the exact number is not on record here.

Test systems include K-562 leukemia; BT-549 breast; SF-539 CNS; SNB-19 CNS; ACHN renal; 786-0 renal; T-47D breast; MALME-3M melanoma.
What all share (assay): NCI-60 cell line screen, 48 h

In the case of `COC(=O)c1oc2c(C(=O)/C=C/c3ccc(OC)cc3)c(OCCN3CCOCC3)ccc2c1C`, the GI50 is 1.44 µM in the assay with K-562 leukemia; 2.42 µM with BT-549 breast; 1.64 µM with SF-539 CNS; 1.65 µM with SNB-19 CNS; 1.73 µM in the assay on ACHN renal; 1.77 µM in the assay with 786-0 renal. Moreover, the GI50 in the assay on T-47D breast was 1.51 µM; in the assay with MALME-3M melanoma, 2.47 µM. For the same compound, the TGI in the assay with K-562 leukemia was found to be 4.82 µM; with BT-549 breast it was 7.91 µM; in the assay on SF-539 CNS, 4.1 µM; in the assay on SNB-19 CNS it was 4.15 µM; in the assay on ACHN renal it was 3.62 µM; in the assay on 786-0 renal, 4.1 µM. The TGI worked out at 6.83 µM in the assay on T-47D breast and 6.54 µM in the assay with MALME-3M melanoma.

Take `Cn1cc(C2=C(c3cn(CCCCCO)c4ccccc34)C(=O)NC2=O)c2ccccc21`: the GI50 with K-562 leukemia was 2.16 µM; in the assay with BT-549 breast, 4 µM; in the assay with SF-539 CNS it was 3.16 µM; in the assay on SNB-19 CNS, 8.41 µM; in the assay with ACHN renal, 6.82 µM; with 786-0 renal, 5.81 µM. For the same compound, the GI50 is 6.44 µM with T-47D breast and 6.9 µM in the assay with MALME-3M melanoma. The TGI was above 25 µM with K-562 leukemia; 10.9 µM in the assay on BT-549 breast; 8.55 µM with SF-539 CNS; above 23.2 µM in the assay with SNB-19 CNS; 24.8 µM in the assay with ACHN renal; above 21.5 µM in the assay with 786-0 renal. Besides, the TGI in the assay on T-47D breast came out at 16 µM; with MALME-3M melanoma it was 16.3 µM.

With `COc1ccc2c(c1)C(c1cc(OC)c3c(c1)OCO3)C1=C(COC1=O)N2` (configuration not stated), the GI50 was 0.264 µM with K-562 leukemia; 2.08 µM in the assay with BT-549 breast; 0.318 µM with SF-539 CNS; 0.468 µM in the assay on SNB-19 CNS; 1.57 µM with ACHN renal; 0.469 µM in the assay on 786-0 renal. Moreover, the GI50 in the assay on T-47D breast is 6.67 µM. Moreover, the TGI is above 100 µM in the assay with K-562 leukemia; above 100 µM in the assay on BT-549 breast; above 100 µM in the assay with SNB-19 CNS; above 100 µM in the assay on ACHN renal; above 36 µM in the assay on 786-0 renal; above 100 µM with T-47D breast. This compound also yielded a TGI in the assay on MALME-3M melanoma above 100 µM.

In the case of `C=CC(=O)N1CC[C@H](n2nc(C#Cc3cc(OC)cc(OC)c3)c3c(N)ncnc32)C1`, the GI50 in the assay on K-562 leukemia is 13.2 µM; in the assay with BT-549 breast, 1.05 µM; in the assay with SF-539 CNS it was 2.6 µM; in the assay on SNB-19 CNS, 7.66 µM; in the assay on ACHN renal, 3.76 µM; in the assay on 786-0 renal, 2.24 µM. Further, the GI50 with T-47D breast was 5.22 µM; with MALME-3M melanoma, 15.6 µM. Further, the TGI with K-562 leukemia is above 100 µM; in the assay on BT-549 breast, 9.56 µM; in the assay on SF-539 CNS, 65.9 µM; in the assay with SNB-19 CNS it was above 100 µM; in the assay with ACHN renal, above 100 µM; in the assay with 786-0 renal it was above 100 µM. For the same compound, the TGI in the assay with T-47D breast and with MALME-3M melanoma was above 100 µM throughout.

Regarding `C=CCOC(=O)Nc1cccn([C@H](CC(C)C)C(=O)NCCC(C)C)c1=O`, the GI50 in the assay with K-562 leukemia was 96 µM; in the assay on BT-549 breast it was above 100 µM; in the assay on SF-539 CNS, above 100 µM; in the assay on SNB-19 CNS it was above 100 µM; in the assay on ACHN renal it was above 100 µM; in the assay on 786-0 renal, above 100 µM. Also, the GI50 is 68.2 µM with T-47D breast and above 100 µM in the assay with MALME-3M melanoma. Moreover, the TGI in the assay on K-562 leukemia, in the assay with BT-549 breast, in the assay with SF-539 CNS, in the assay on SNB-19 CNS, in the assay with ACHN renal and in the assay with 786-0 renal was above 100 µM each time. In addition, the TGI in the assay on T-47D breast and in the assay on MALME-3M melanoma was above 100 µM each time.

`Nc1nn(C(=O)Nc2c(F)cccc2F)c2ccccc12`: the GI50 with K-562 leukemia was above 100 µM; with BT-549 breast it was 28.8 µM; with SF-539 CNS, 31.4 µM; in the assay with SNB-19 CNS, above 100 µM; in the assay on ACHN renal, 50.1 µM; in the assay on 786-0 renal it was above 100 µM. Besides, the GI50 in the assay with T-47D breast is 68.7 µM; in the assay on MALME-3M melanoma, above 100 µM. For the same compound, the TGI in the assay on K-562 leukemia, in the assay with BT-549 breast, in the assay with SF-539 CNS, in the assay on SNB-19 CNS, in the assay with ACHN renal and in the assay with 786-0 renal was above 100 µM each time. In addition, the TGI in the assay on T-47D breast and with MALME-3M melanoma was above 100 µM in each case.

For the compound `OCC1CCCC1O` (configuration not stated), the TGI in the assay on K-562 leukemia, in the assay with BT-549 breast, in the assay with SF-539 CNS, in the assay with SNB-19 CNS, with ACHN renal and in the assay on 786-0 renal was above 100 µM each time. Also, the TGI in the assay with T-47D breast and in the assay on MALME-3M melanoma was above 100 µM in each case.

Regarding `CCCN(CCC)c1ccc(C=O)c(C)c1`, the GI50 in the assay with K-562 leukemia was 68.7 µM; in the assay with BT-549 breast it was 26.9 µM; in the assay on SF-539 CNS it was above 70.5 µM; with SNB-19 CNS, 60.9 µM; with ACHN renal, 49.4 µM; in the assay with 786-0 renal it was 43.9 µM. Also, the GI50 with T-47D breast is 20.8 µM; with MALME-3M melanoma it was 43.8 µM. For the same compound, the TGI with K-562 leukemia, in the assay with BT-549 breast, in the assay with SF-539 CNS, in the assay on SNB-19 CNS, in the assay with ACHN renal and in the assay on 786-0 renal was above 100 µM in each case. The TGI in the assay on T-47D breast is 98.9 µM; in the assay on MALME-3M melanoma, above 100 µM.

Take `O=C(O)Cc1ccc(N=Nc2c(O)c(C(=O)O)cc3ccccc23)cc1`: the TGI with K-562 leukemia, with BT-549 breast, in the assay on SF-539 CNS, in the assay on SNB-19 CNS, in the assay with ACHN renal and in the assay on 786-0 renal was above 100 µM each time. In addition, the TGI in the assay with T-47D breast and in the assay on MALME-3M melanoma was above 100 µM throughout.

With `COc1cc(/C=C/C(=O)c2c(-c3ccc(F)cc3)nc3sc(C)nn23)cc(OC)c1OC`, the GI50 was 2.61 µM in the assay on K-562 leukemia; 2.55 µM in the assay with BT-549 breast; 2.09 µM in the assay with SF-539 CNS; 3.24 µM in the assay on SNB-19 CNS; 1.93 µM with ACHN renal; 3.31 µM in the assay on 786-0 renal. Further, the figures for the GI50 in the assay on T-47D breast and in the assay with MALME-3M melanoma were 2.09 µM and 4.26 µM, respectively. The TGI stood at 15 µM with K-562 leukemia; 7.09 µM in the assay with BT-549 breast; 4.54 µM in the assay with SF-539 CNS; 13.1 µM in the assay on SNB-19 CNS; 4.6 µM with ACHN renal; 10.6 µM in the assay with 786-0 renal. The figures for the TGI with T-47D breast and in the assay on MALME-3M melanoma were 7.57 µM and 16.9 µM, respectively.
